Among the data in PubChem BioAssay (NCI) are TGI values, retold here.

Molecules are shown by their SMILES.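 1) Cells in 96-well plates. 2) Compound, 48 h, 5 concentrations. 3) Linear interpolation between surrounding doses. 4) Unreached endpoint = highest concentration. TGI is the concentration that stops growth completely.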

Test systems include UACC-62 melanoma; SK-MEL-28 melanoma; MDA-MB-435; IGROV1 ovarian; NCI-H460 lung; MCF7 breast; U251 CNS; A549 NSCLC; SF-539 CNS; HCC-2998 colon.
Assay in all cases: DTP human tumour cell line panel, 48 h

In general, TGI refers to the concentration at which net growth stops. A low value points to greater sensitivity of the cells.

With `Nc1ccc(-c2nc3cc(F)ccc3s2)cc1Cl`, the TGI in the assay with UACC-62 melanoma was > 100 µM; with SK-MEL-28 melanoma it was > 100 µM; in the assay on MDA-MB-435, > 100 µM; in the assay on IGROV1 ovarian, 42.9 µM; in the assay on NCI-H460 lung, 25 µM; with MCF7 breast it was 1.35 µM. Further, the total growth inhibition concentration (TGI) is 55.4 µM in the assay on U251 CNS, > 100 µM in the assay on A549 NSCLC, 45.1 µM in the assay with SF-539 CNS and 0.0255 µM in the assay on HCC-2998 colon.
With `COC(=O)CC(C#N)(OP1(=O)OC(c2ccccc2)C(C)N1C)c1ccccc1` (stereo not drawn), the TGI was 56.9 µM in the assay with UACC-62 melanoma; > 100 µM in the assay with SK-MEL-28 melanoma; 53.7 µM in the assay with MDA-MB-435; > 100 µM in the assay on IGROV1 ovarian; 44.4 µM in the assay with NCI-H460 lung; > 100 µM with MCF7 breast. The TGI was 87.3 µM with U251 CNS, > 100 µM in the assay on A549 NSCLC, > 100 µM in the assay with SF-539 CNS and 31.6 µM in the assay with HCC-2998 colon.
As to `C=C1C(=O)C[C@H]2C(=C)C(=O)O[C@@H]2C2C1CC[C@@]2(C)O` (stereo partly drawn), the TGI was 31.2 µM in the assay with UACC-62 melanoma; 85.5 µM in the assay with SK-MEL-28 melanoma; > 100 µM in the assay with MDA-MB-435; > 100 µM with IGROV1 ovarian; 43.1 µM in the assay with NCI-H460 lung; 36.1 µM with MCF7 breast. For the same compound, the TGI was > 100 µM in the assay with U251 CNS, > 100 µM in the assay with A549 NSCLC, > 100 µM with SF-539 CNS and 38.1 µM with HCC-2998 colon.
As for `CC(C)CC1C(=O)NCCC(NC(=O)C(Cc2ccc(OC(C)(C)C)cc2)NC(=O)OC(C)(C)C)C(=O)NC(Cc2ccccc2)C(=O)NC(Cc2ccccc2)NC1=O` (stereo not drawn), the TGI in the assay on UACC-62 melanoma was found to be 31.1 µM; in the assay on SK-MEL-28 melanoma it was 42.4 µM; in the assay on MDA-MB-435, 12.2 µM; with IGROV1 ovarian, 31.7 µM; in the assay with NCI-H460 lung it was 15 µM; with MCF7 breast, 52.3 µM. In addition, the TGI in the assay on U251 CNS was determined as 27.2 µM; with SF-539 CNS, 44.9 µM; in the assay on HCC-2998 colon, 35.4 µM.
Consider `O=c1cnn(C/C=C/CBr)c(=O)[nH]1`, for which the TGI is 41.9 µM in the assay with SK-MEL-28 melanoma; 33.7 µM in the assay with MDA-MB-435; 37.7 µM in the assay on IGROV1 ovarian; 36.5 µM in the assay with NCI-H460 lung; 36 µM in the assay on MCF7 breast; 28.8 µM in the assay with U251 CNS. Besides, the figures for the TGI with A549 NSCLC, with SF-539 CNS and in the assay on HCC-2998 colon were 33.9 µM, 31.6 µM and 34.7 µM, respectively.
Turning to `CCCC(=O)n1[nH]c(=O)n(-c2ccc(Cl)cc2)c1=O`, the TGI with UACC-62 melanoma, in the assay with SK-MEL-28 melanoma, with MDA-MB-435, in the assay on IGROV1 ovarian, in the assay on NCI-H460 lung and with MCF7 breast was > 100 µM in each case. In addition, the TGI in the assay on U251 CNS, in the assay on A549 NSCLC and with HCC-2998 colon was > 100 µM in each case.
As to `COc1ccccc1/C(=N\OCCC(=O)O)c1cccs1`, the TGI in the assay on UACC-62 melanoma, in the assay on SK-MEL-28 melanoma, in the assay with MDA-MB-435, with NCI-H460 lung, with MCF7 breast and in the assay with U251 CNS was > 100 µM throughout. Besides, the TGI with A549 NSCLC, with SF-539 CNS and with HCC-2998 colon was > 100 µM in each case.
For the compound `COC(=O)C1=C(C)NC2=C(C(=O)c3ccccc32)C1c1cn(-c2ccccc2)nc1-c1ccccc1` (stereo not drawn), the TGI in the assay on UACC-62 melanoma, in the assay on SK-MEL-28 melanoma, in the assay with MDA-MB-435, with IGROV1 ovarian, in the assay with MCF7 breast and with U251 CNS was > 100 µM each time. In addition, the TGI with A549 NSCLC, in the assay on SF-539 CNS and with HCC-2998 colon was > 100 µM throughout.
On to `O=Cc1cn(CCCCCCCCCCCCn2cc(C=O)c3ccccc32)c2ccccc12`, for which the TGI in the assay on UACC-62 melanoma, with SK-MEL-28 melanoma, in the assay with MDA-MB-435, in the assay on IGROV1 ovarian, with MCF7 breast and with U251 CNS was > 100 µM throughout. For the same compound, the TGI in the assay on A549 NSCLC, in the assay with SF-539 CNS and in the assay with HCC-2998 colon was > 100 µM throughout.
Turning to `COC(=O)c1ccc(C(=O)NC(Cc2ccc(Oc3cc(CC(NC(=O)c4ccccc4C(=O)OC)C(=O)OC)ccc3OC)cc2)C(=O)OC)cc1` (stereo not drawn), the TGI with SK-MEL-28 melanoma, in the assay on MDA-MB-435, in the assay with IGROV1 ovarian, with NCI-H460 lung, in the assay on MCF7 breast and in the assay with A549 NSCLC was > 100 µM in each case. Moreover, the TGI with SF-539 CNS and in the assay on HCC-2998 colon was > 100 µM in each case.
With `OC1(C(F)(F)F)OCCN=C1C(F)(F)F` (stereo not drawn), the TGI in the assay with UACC-62 melanoma, in the assay on SK-MEL-28 melanoma, in the assay with MDA-MB-435, in the assay with IGROV1 ovarian, with NCI-H460 lung and in the assay on MCF7 breast was > 100 µM in each case. Further, the TGI in the assay with U251 CNS, in the assay with A549 NSCLC and with HCC-2998 colon was > 100 µM each time.
As to `CCN(CC)CCC(=O)/C=C/c1ccccc1`, the TGI in the assay with SK-MEL-28 melanoma amounted to 30.8 µM; in the assay on MDA-MB-435, 23.2 µM; in the assay with IGROV1 ovarian it was 35.5 µM; in the assay on NCI-H460 lung, 32.6 µM; in the assay with MCF7 breast, 10.6 µM; in the assay on U251 CNS, 25.6 µM. Further, the figures for the TGI with A549 NSCLC, in the assay on SF-539 CNS and in the assay with HCC-2998 colon were 39.9 µM, 37.5 µM and 34.8 µM, respectively.
Regarding `N#Cc1nc2ccccc2nc1N1CCN(c2ccc([N+](=O)[O-])cc2)CC1`, the TGI with UACC-62 melanoma, in the assay with SK-MEL-28 melanoma, in the assay on MDA-MB-435, in the assay on IGROV1 ovarian, in the assay with NCI-H460 lung and in the assay on MCF7 breast was > 100 µM each time. The TGI with U251 CNS, in the assay with A549 NSCLC and in the assay on HCC-2998 colon was > 100 µM each time.
As for `CC(C)(C)OC(=O)N1CCc2[nH][nH]c(=O)c2C1`, the TGI in the assay with UACC-62 melanoma, with SK-MEL-28 melanoma, with MDA-MB-435, in the assay on IGROV1 ovarian, in the assay with NCI-H460 lung and with MCF7 breast was > 100 µM in each case. Also, the TGI in the assay on U251 CNS, with A549 NSCLC and in the assay on SF-539 CNS was > 100 µM in each case.
